Experimental data: patent publication US8003785B2 (Takeda Pharmaceutical Company Limited, priority 2008, dated 2011)

Each compound was assayed against T1, PLK1 (Homo sapiens, UniProt P53350) (assay: Biochemical Characterization Assay: HTRF kinase assay, GST-PLK1 phosphorylation of GST-p53). Conditions: GST-PLK1, GST-p53 substrate.
T1 construct: Full-length, active GST-PLK1 is purified from Sf9 insect cells; made in house; host or cells: Sf9 insect cells
Procedure, shortened: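 HTRF read-out of p53 phosphorylation: after EDTA stop, anti-phospho-p53 antibody bound 30 min at 37 °C in HEPES pH 7 buffer, with Eu-anti-rabbit/APC-anti-GST detection. Kinase step used full-length Sf9-expressed GST-PLK1 (3 ug/mL) and E. coli GST-p53 substrate, 35 min at 37 °C.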

T1 sequence (P53350 whole entry): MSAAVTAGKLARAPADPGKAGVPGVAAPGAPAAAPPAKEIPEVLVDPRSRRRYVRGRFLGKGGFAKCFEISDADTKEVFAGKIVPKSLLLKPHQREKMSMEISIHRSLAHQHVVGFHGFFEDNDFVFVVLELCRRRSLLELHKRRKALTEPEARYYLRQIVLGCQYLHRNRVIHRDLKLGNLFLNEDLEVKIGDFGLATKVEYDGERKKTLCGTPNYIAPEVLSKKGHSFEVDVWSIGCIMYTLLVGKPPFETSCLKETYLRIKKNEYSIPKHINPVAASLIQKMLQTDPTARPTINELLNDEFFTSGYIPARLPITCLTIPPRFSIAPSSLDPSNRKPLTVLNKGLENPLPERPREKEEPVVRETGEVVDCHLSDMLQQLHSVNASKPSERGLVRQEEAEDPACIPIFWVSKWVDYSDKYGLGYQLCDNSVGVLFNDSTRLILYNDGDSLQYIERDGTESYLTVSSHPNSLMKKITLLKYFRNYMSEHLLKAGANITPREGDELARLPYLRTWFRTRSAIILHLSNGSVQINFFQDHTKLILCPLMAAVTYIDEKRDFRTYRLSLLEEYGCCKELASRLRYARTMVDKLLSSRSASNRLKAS

Row | SMILES | IC50 [nM]
1 | COc1ccc(CN2CC(F)(F)C(=O)N(C)c3cnc(Nc4ccc(C(=O)NC5CCN(C)CC5)cc4OC)nc32)cc1 [Example I-291, 4-[7,7-difluoro-9-(4-methoxy-benzyl)-5-methyl-6-oxo-6,7,8,9-tetrahydro-5H-pyrimido[4,5-b][1,4]diazepin-2-ylamino]-3-methoxy-N-(1-methyl-piperidin-4-yl)-benzamide] | 51 to 500
2 | COc1cc(C(=O)NC2CCN(C)CC2)ccc1Nc1ncc2c(n1)N(C1CCCC1)CC(Cl)(Cl)C(=O)N2C [Example I-298, 4-(7,7-dichloro-9-cyclopentyl-5-methyl-6-oxo-6,7,8,9-tetrahydro-5H-pyrimido[4,5-b][1,4]diazepin-2-ylamino)-3-methoxy-N-(1-methyl-piperidin-4-yl)-benzamide] | 1 to 50
3 | COc1cc(C(=O)N[C@H]2CC[C@@H](N3CCN(CC4CC4)CC3)CC2)ccc1Nc1ncc2c(n1)N(C1CCCC1)CC(F)(F)C(=O)N2C [Example I-299, 4-(9-cyclopentyl-7,7-difluoro-5-methyl-6-oxo-6,7,8,9-tetrahydro-5H-pyrimido[4,5-b][1,4]diazepin-2-ylamino)-N-[cis-4-(4-cyclopropylmethyl-piperazin-1-yl)-cyclohexyl]-3-methoxy-benzamide] | 1 to 50
4 | COc1cc(C(=O)N[C@H]2CC[C@H](N3CCN(CC4CC4)CC3)CC2)ccc1Nc1ncc2c(n1)N(C1CCCC1)CC(F)(F)C(=O)N2C [Example I-300, 4-(9-cyclopentyl-7,7-difluoro-5-methyl-6-oxo-6,7,8,9-tetrahydro-5H-pyrimido[4,5-b][1,4]diazepin-2-ylamino)-N-[trans-4-(4-cyclopropylmethyl-piperazin-1-yl)-cyclohexyl]-3-methoxy-benzamide] | 1 to 50
5 | COc1cc(C(=O)NC2CCN(C)CC2)ccc1Nc1ncc2c(n1)NCC(F)(F)C(=O)N2C [Example I-303, 4-(7,7-difluoro-5-methyl-6-oxo-6,7,8,9-tetrahydro-5H-pyrimido[4,5-b][1,4]diazepin-2-ylamino)-3-methoxy-N-(1-methyl-piperidin-4-yl)-benzamide] | 51 to 500
6 | COc1cc(C(=O)NC2CCN(C)CC2)ccc1Nc1ncc2c(n1)N(CCOc1ccccc1)CC(F)(F)C(=O)N2C [Example I-304, 4-[7,7-difluoro-5-methyl-6-oxo-9-(2-phenoxy-ethyl)-6,7,8,9-tetrahydro-5H-pyrimido[4,5-b][1,4]diazepin-2-ylamino]-3-methoxy-N-(1-methyl-piperidin-4-yl)-benzamide] | 51 to 500

The remaining lines, values ahead:

Row | IC50 [nM] | SMILES
7 | 51 to 500 | COc1cc(C(=O)O)ccc1Nc1ncc2c(n1)N(C(C)C)CC(F)(F)C(=O)N2C [Example I-292, 4-(7,7-difluoro-9-isopropyl-5-methyl-6-oxo-6,7,8,9-tetrahydro-5H-pyrimido[4,5-b][1,4]diazepin-2-ylamino)-3-methoxy-benzoic acid]
8 | 1 to 50 | COc1cc(C(=O)NC2CCN(C)CC2)ccc1Nc1ncc2c(n1)N(C(C)C)CC(F)(F)C(=O)N2C [Example I-293, 4-(7,7-difluoro-9-isopropyl-5-methyl-6-oxo-6,7,8,9-tetrahydro-5H-pyrimido[4,5-b][1,4]diazepin-2-ylamino)-3-methoxy-N-(1-methyl-piperidin-4-yl)-benzamide]
9 | 1 to 50 | COc1cc(C(N)=O)ccc1Nc1ncc2c(n1)N(C(C)C)CC(F)(F)C(=O)N2C [Example I-294, 4-(7,7-difluoro-9-isopropyl-5-methyl-6-oxo-6,7,8,9-tetrahydro-5H-pyrimido[4,5-b][1,4]diazepin-2-ylamino)-3-methoxy-benzamide]
10 | 1 to 50 | CNC(=O)c1ccc(Nc2ncc3c(n2)N(C(C)C)CC(F)(F)C(=O)N3C)c(OC)c1 [Example I-295, 4-(7,7-difluoro-9-isopropyl-5-methyl-6-oxo-6,7,8,9-tetrahydro-5H-pyrimido[4,5-b][1,4]diazepin-2-ylamino)-3-methoxy-N-methyl-benzamide]
11 | 1 to 50 | COc1cc(C(=O)NCCCN(C)C)ccc1Nc1ncc2c(n1)N(C(C)C)CC(F)(F)C(=O)N2C [Example I-296, 4-(7,7-difluoro-9-isopropyl-5-methyl-6-oxo-6,7,8,9-tetrahydro-5H-pyrimido[4,5-b][1,4]diazepin-2-ylamino)-N-(3-dimethylamino-propyl)-3-methoxy-benzamide]
12 | 1 to 50 | COc1cc(C(=O)NC2CCOCC2)ccc1Nc1ncc2c(n1)N(C(C)C)CC(F)(F)C(=O)N2C [Example I-297, 4-(7,7-difluoro-9-isopropyl-5-methyl-6-oxo-6,7,8,9-tetrahydro-5H-pyrimido[4,5-b][1,4]diazepin-2-ylamino)-3-methoxy-N-(tetrahydro-pyran-4-yl)-benzamide]
13 | 1 to 50 | COc1cc(C(=O)N[C@H]2CC[C@@H](N3CCN(CC4CC4)CC3)CC2)ccc1Nc1ncc2c(n1)N(C(C)C)CC(F)(F)C(=O)N2C [Example I-301, N-[cis-4-(4-cyclopropylmethyl-piperazin-1-yl)-cyclohexyl]-4-(7,7-difluoro-9-isopropyl-5-methyl-6-oxo-6,7,8,9-tetrahydro-5H-pyrimido[4,5-b][1,4]diazepin-2-ylamino)-3-methoxy-benzamide]
14 | 1 to 50 | COc1cc(C(=O)N[C@H]2CC[C@H](N3CCN(CC4CC4)CC3)CC2)ccc1Nc1ncc2c(n1)N(C(C)C)CC(F)(F)C(=O)N2C [Example I-302, N-[trans-4-(4-cyclopropylmethyl-piperazin-1-yl)-cyclohexyl]-4-(7,7-difluoro-9-isopropyl-5-methyl-6-oxo-6,7,8,9-tetrahydro-5H-pyrimido[4,5-b][1,4]diazepin-2-ylamino)-3-methoxy-benzamide]
